Results taken from patent US12239733B2, “Treatment of protein aggregation myopathic and neurodegenerative diseases by parenteral administration of trehalose” (Seelos Therapeutics, Inc., priority 2013, dated 2025).
“Also recorded” adds a separate entry of the source.

Tests used:
[1] = Preclinical pharmacokinetic study: plasma and muscle concentrations of trehalose after intravenous bolus (IV) and oral gavage (PO); assay type: in vivo, male Sprague-Dawley (SD) rats
Procedure: The plasma and muscle concentrations of trehalose in male Sprague-Dawley (SD) rats was determined after intravenous bolus (IV) and oral gavage (PO) administration.
The study included 42 SD rats (male, 250 to 350 grams in weight, the Shanghai SLAC Laboratory Animal Co. Ltd.). Animals were administered with a volume of 5 ml/kg trehalose formulation (trehalose dihydrate in sterilized water at 200 mg/mL) to achieve a nominal dose of 1 gr/kg, intravenously or orally.
Blood samples were collected after each dose administration and processed for plasma. Muscle samples (hind leg muscle) were collected and homogenized. The concentrations of trehalose in plasma and muscle homogenate samples were analyzed by qualified bioanalytical LC/MS/MS methods.
Plasma concentration data of trehalose was subjected to a non compartmental pharmacokinetic analysis using WinNonlin software program (version 6.3, Pharsight, Mountain View, CA). Zero-time intercept concentration (C0), volume of distribution (Vdss), Clearance (Cl), peak plasma concentrations (Cmax) and the corresponding peak times (Tmax), terminal half-life (T½), mean residence time (MRT) from time zero to the last time point (MRT0-last), MRT from time zero to infinity (MRT0-inf), the area under the plasma concentration-time curve (AUC) from time zero to the last time point (AUC0-last) and AUC from time zero extrapolated to infinity (AUC0-inf) were calculated using the linear/log trapezoidal rule. Nominal sampling times were used to calculate all pharmacokinetic parameters since there was not any deviation larger than 5% between the actual and nominal sampling times.
The values of muscle to plasma concentration and AUC ratio (M/P ratio) were both calculated.

[2] = test system: healthy volunteers; conditions: cited from earlier work
[3] = oral (ingested); cited from earlier work
[4] = test system: transgenic HD mice; conditions: oral, cited from earlier work
[5] = test system: transgenic OPMD mice; conditions: cited from earlier work
[6] = 0.2%-5% trehalose in drinking water, 5-9 weeks

| Structure (SMILES) | tolerability in rats ([1]; 1000 mg/kg IV or PO, male SD rats) | AUC0-inf/AUC0-last ([1]; male, Sprague-Dawley, rat, in vivo, iv, 1000 mg/kg) [%] | AUC0-inf ([1]; rat, in vivo, iv, 1000 mg/kg) [ng·h/g] | plasma concentration of trehalose after oral administration ([1]; rat, in vivo, po) | safety issues reported ([2]; healthy volunteers, oral doses from 10 to 60 gr) | gastrointestinal effects of high oral amounts ([2]; oral, exceeding 40-50 gram per day, higher than 50 g a day in humans) | share of ingested trehalose absorbed into the blood stream [3] | motor dysfunction / HD-related motor symptoms [4, 6] | polyglutamine / huntingtin aggregates [4, 6] | survival ([4]; HD mouse model) | OPMD onset, phenotype, aggregate formation, cell death ([5]; oral trehalose) | aggregation formation and toxicity of mutant PABPN1 in myocytes ([5]; oral, 2% trehalose in drinking water, 4-6 months) |
| --- | --- | --- | --- | --- | --- | --- | --- | --- | --- | --- | --- | --- |
| OC[C@H]1O[C@H](O[C@H]2O[C@H](CO)[C@@H](O)[C@H](O)[C@H]2O)[C@H](O)[C@@H](O)[C@@H]1O [trehalose dihydrate] | well tolerated |  |  |  |  |  |  |  |  |  |  |  |
| OC[C@H]1O[C@H](O[C@H]2O[C@H](CO)[C@@H](O)[C@H](O)[C@H]2O)[C@H](O)[C@@H](O)[C@@H]1O [trehalose, α-G-glucopyranosyl α-D-glucopyranoside] |  | 100 | 183000 | undetectable | mild abdominal symptoms | frequently cause diarrhea, bloating and discomfort; also recorded: causes diarrhea and bloating | Less than 0.5% | improve motor dysfunction; also recorded: improvement of HD-related motor symptoms | reduce polyglutamine aggregates; also recorded: inhibition of formation of intra-nuclear huntingtin aggregates in the brain and liver | extend survival | delay the OPMD onset, attenuate the disease phenotype, decrease polyalanine protein aggregate formation and decrease cell death | significantly reduce aggregation formation and toxicity of the mutant PABPN1 in myocytes |
